Laboratory results published in ChEMBL document CHEMBL4406843, “β-Amino acid derivatives as mitochondrial complex III inhibitors of L. donovani: A promising chemotype targeting visceral leishmaniasis” (Eur J Med Chem, 2019).
Active and inactive are the calls of the source. The rule behind the calls is not given here.

Key:
[1] = Toxicity in golden hamster infected with Leishmania donovani amastigotes assessed as reduction in serum ALT level at 50 mg/kg , ip and measured after 10 weeks post infection (reference value: 216 U/L); type: organism-based, Mesocricetus auratus; settings: in vivo, 1680 h
Leishmania donovani [2] = assay: Induction of mitochondrial membrane depolarization in Leishmania donovani promastigotes assessed as distorted mitochondria at 50 uM after 24 hrs by TEM analysis; type: functional, organism-based
Mus musculus = assay: Immunostimulatory activity in BALB/c mouse infected with Leishmania donovani promastigotes assessed as induction of IL-2 cytokine production at 50 mg/kg administered for 5 days starting at 15 days post infection and measured after 3 to 7 weeks by ELISA; type: functional, organism-based
[3] = Volume of distribution in BALB/c mouse at 50 mg/kg, ip by HPLC analysis; type: ADME, organism-based; settings: in vivo
Leishmania donovani [4] = assay: Antileishmanial activity against Leishmania donovani MHOM/IN/80/Dd8 amastigotes harboring luciferase reporter gene infected in mouse J774 cells at 50 uM after 72 hrs by Steady-Glo luminescence assay relative to control; type: functional; settings: MHOM/IN/80/Dd8, J774, 72 h
J774 [5] = assay: Immunostimulatory activity in mouse J774 cells infected with Leishmania donovani promastigotes assessed as increase in TNF-alpha cytokine production at 50 uM after 48 hrs by ELISA; type: functional, cell-based
J774 [6] = assay: Immunostimulatory activity in mouse J774 cells infected with Leishmania donovani promastigotes assessed as reduction in TGF-beta cytokine production at 50 uM after 48 hrs by ELISA; type: functional, cell-based
Leishmania donovani [7] = assay: Antileishmanial activity against Leishmania donovani promastigotes infected in BALB/c mouse assessed as reduction in parasite burden in liver at 25 mg/kg, ip administered for 7 days starting at 15 days post-infection and measured after 1 week post last dose Giemsa staining-based assay relative to control; type: functional
Leishmania donovani [8] = assay: Induction of apoptosis in Leishmania donovani promastigotes assessed as late apoptotic cells at 50 uM after 48 hrs by Annexin-V/propidium iodide staining based flow cytometric method (reference value: 0.59%); type: functional
[9] = Toxicity in BALB/c mouse infected with Leishmania donovani promastigotes assessed as serum ALT level at 50 mg/kg , ip measured after 3 to 7 weeks (rvb = 31 IU/L); type: organism-based; settings: in vivo
[10] = Half life in BALB/c mouse at 50 mg/kg, ip by HPLC analysis; type: ADME, organism-based; settings: in vivo
Leishmania donovani [11] = assay: Induction of mitochondrial dysfunction in Leishmania donovani promastigotes assessed as reduction in mitochondrial membrane potential at 50 uM after 12 hrs by JC-1 staining-based flow cytometric analysis (reference value: 7.73%); type: functional; set-up: scale not given: the % may be the effect or the level left
[12] = Stability in simulated intestinal fluid at 10 ug/ml measured after 2 hrs by UPLC analysis relative to control; type: ADME; settings: read-out: Stability
J774 [13] = assay: Immunostimulatory activity in mouse J774 cells infected with Leishmania donovani promastigotes assessed as increase in IL-2 cytokine production at 50 uM after 48 hrs by ELISA; type: functional, cell-based
Leishmania donovani [14] = assay: Antileishmanial activity against Leishmania donovani amastigotes infected in golden hamster assessed as reduction in parasite burden in liver at 50 mg/kg, ip administered on alternative days for 4 weeks starting at 4 weeks post-infection and measured after 2 week post last dose Giemsa staining-based assay relative to control; type: functional
Leishmania donovani [15] = assay: Antileishmanial activity against Leishmania donovani promastigotes infected in BALB/c mouse assessed as inhibition in parasite burden in spleen at 100 mg/kg, ip administered for 7 days starting at 15 days post-infection and measured after 1 week post last dose Giemsa staining-based assay relative to control; type: functional
Leishmania donovani [16] = assay: Induction of mitochondrial dysfunction in Leishmania donovani promastigotes assessed as reduction in mitochondrial membrane potential at 50 uM after 24 hrs by JC-1 staining-based flow cytometric analysis (reference value: 7.73%); type: functional; set-up: scale not given: the % may be the effect or the level left
Leishmania donovani [17] = assay: Induction of ROS generation in Leishmania donovani promastigotes at 50 uM after 3 hrs by H2DCFDA probe based flow cytometry (reference value: 1.97%); type: functional
[18] = Selectivity index, ratio of CC50 for mouse J774 cells to IC50 for antileishmanial activity against Leishmania donovani MHOM/IN/80/Dd8 amastigotes harboring luciferase reporter gene; type: toxicity; settings: read-out: Ratio CC50/IC50
[19] = AUC(0 to infinity) in BALB/c mouse at 50 mg/kg, ip by HPLC analysis; type: ADME, organism-based; set-up: dose 50 mg/kg, route intraperitoneal, time infinity; settings: in vivo
Leishmania donovani [20] = assay: Antileishmanial activity against Leishmania donovani MHOM/IN/80/Dd8 promastigotes harboring luciferase reporter gene assessed as inhibition of viability at 3.12 to 100 uM after 24 to 72 hrs by MTT assay relative to control; type: functional
[21] = Stability in simulated gastric fluid at 10 ug/ml measured after 2 hrs by UPLC analysis relative to control; type: ADME; settings: read-out: Stability
Leishmania donovani [22] = assay: Induction of ROS generation in Leishmania donovani promastigotes at 50 uM after 12 hrs by H2DCFDA probe based flow cytometry (reference value: 1.97%); type: functional
Leishmania donovani [23] = assay: Induction of mitochondrial dysfunction in Leishmania donovani promastigotes assessed as reduction in mitochondrial membrane potential at 50 uM after 6 hrs by JC-1 staining-based flow cytometric analysis (reference value: 7.73%); type: functional; set-up: scale not given: the % may be the effect or the level left
Leishmania donovani [24] = assay: Induction of membrane depolarization in Leishmania donovani promastigotes assessed as increase in fluorescence at 50 uM by DiBAC4 dye based flow cytometry analysis relative to relative to 0.1% Triton X-100; type: functional
Leishmania donovani [25] = assay: Inhibition of ubiquinol cytochrome c reductase in Leishmania donovani promastigotes mitochondria at 50 uM using decylubiquinol as substrate in presence of cytochrome c relative to control
[26] = Toxicity in BALB/c mouse infected with Leishmania donovani promastigotes assessed as survival at 12.5 to 200 mg/kg, ip administered for 7 days starting at 15 days post-infection; type: organism-based; settings: in vivo
Leishmania donovani [27] = assay: Induction of apoptosis in Leishmania donovani promastigotes assessed as necrotic cells at 50 uM after 24 hrs by Annexin-V/propidium iodide staining based flow cytometric method (reference value: 0.06%); type: functional
[28] = Cytotoxicity against African green monkey Vero cells assessed as cell viability at 25 uM by MTT assay relative to control; type: cell-based; settings: chlorocebus sabaeus, read-out: Activity
[29] = Half life in mouse liver microsomes after 1 hr in presence of NADPH by UPLC analysis; type: ADME, Microsome
Leishmania donovani [30] = assay: Antileishmanial activity against Leishmania donovani MHOM/IN/80/Dd8 amastigotes harboring luciferase reporter gene infected in mouse J774 cells after 48 hrs by Giemsa staining-based microscopic assay; type: functional, organism-based; settings: MHOM/IN/80/Dd8, J774, 48 h
Leishmania donovani [31] = assay: Inhibition of succinate-ubiquinone oxidoreductase in Leishmania donovani promastigotes mitochondria at 8.1 to 50 uM using succinate as substrate in presence fo DCPIP by photometry analysis
Leishmania donovani [32] = assay: Antileishmanial activity against Leishmania donovani promastigotes infected in BALB/c mouse assessed as inhibition in parasite burden in liver at 50 mg/kg, ip administered for 7 days starting at 15 days post-infection and measured after 1 week post last dose Giemsa staining-based assay relative to control; type: functional
Leishmania donovani [33] = assay: Induction of apoptosis in Leishmania donovani promastigotes assessed as necrotic cells at 50 uM after 48 hrs by Annexin-V/propidium iodide staining based flow cytometric method (reference value: 0.06%); type: functional

**Q.** Which Activity [1] does the source give for `CCOC(=O)C(C(=O)c1ccc(OC)cc1)C(NC(C)=O)c1cccc2ccccc12` (centres undefined) here?
**A.** 166 IU/L

**Q.** And the Activity (Leishmania donovani [2])?
**A.** Active

**Q.** What about the Activity (Mus musculus) of the same compound?
**A.** inactive

**Q.** What about the Vd [3] of the same compound?
**A.** 301.51 L/kg

**Q.** And the inhibition at 50 µM (Leishmania donovani [4])?
**A.** 93.5%

**Q.** And the Activity (J774 [5])?
**A.** inactive

**Q.** What about the Activity (J774 [6]) of the same compound?
**A.** inactive

**Q.** What about the inhibition in vivo at 25 mg/kg (Leishmania donovani [7]) of the same compound?
**A.** 67.6%

**Q.** And the Activity (Leishmania donovani [8])?
**A.** 2.65%

**Q.** What about the Activity [9] of the same compound?
**A.** 17 to 177 IU/L

**Q.** What about the half-life [10] of the same compound?
**A.** 5.11 h

**Q.** And the Activity (Leishmania donovani [11])?
**A.** 37.26%

**Q.** What about the remaining at 2 h, 10 ug/ml [12] of the same compound?
**A.** 80.2%

**Q.** What about the Activity (J774 [13]) of the same compound?
**A.** inactive

**Q.** What about the inhibition in vivo at 50 mg/kg (Leishmania donovani [14]) of the same compound?
**A.** 88.2%

**Q.** And the inhibition in vivo at 100 mg/kg (Leishmania donovani [15])?
**A.** 92.8%

**Q.** And the Activity (Leishmania donovani [16])?
**A.** 63.61%

**Q.** And the Activity (Leishmania donovani [17])?
**A.** 7.49%

**Q.** And the selectivity ratio [18]?
**A.** 23.4

**Q.** And the AUC(0-inf) [19]?
**A.** 1280 ng·h/mL

**Q.** What about the “inhibition (INH)” value (Leishmania donovani [20]) of the same compound?
**A.** 95.4%

**Q.** And the remaining at 2 h, 10 ug/ml [21]?
**A.** 81.9%

**Q.** What about the Activity (Leishmania donovani [22]) of the same compound?
**A.** 50.35%

**Q.** What about the Activity (Leishmania donovani [23]) of the same compound?
**A.** 19.52%

**Q.** And the Activity (Leishmania donovani [24])?
**A.** <=78.5%

**Q.** And the inhibition (Leishmania donovani [25])?
**A.** > 49%

**Q.** And the Activity [26]?
**A.** Non-Toxic

**Q.** What about the Activity (Leishmania donovani [27]) of the same compound?
**A.** 0.07%

**Q.** What about the viability at 25 µM [28] of the same compound?
**A.** 99.2%

**Q.** What about the half-life [29] of the same compound?
**A.** 5.22 h

**Q.** What about the IC50 (Leishmania donovani [30]) of the same compound?
**A.** 16.9 µM

**Q.** And the inhibition (Leishmania donovani [31])?
**A.** inactive

**Q.** And the inhibition in vivo at 50 mg/kg (Leishmania donovani [32])?
**A.** 91.5%

**Q.** And the Activity (Leishmania donovani [33])?
**A.** 0.11%
